Source: US11214594B2, “Antimicrobial peptide having synergistic antibacterial effect with antibiotics on multidrug resistant bacteria, and use thereof” (priority 2016, dated 2022)
Converted amounts (≈) assume the structure as drawn. Where a SMILES comes first, the peptide text is derived from it.

Columns and labels:
S. typhimurium = experiment: microbe, parasite or virus in culture; assay type: cell-based, Salmonella typhimurium
Procedure: (§1) For the antibacterial activity, a minimal inhibitory concentration (MIC) of a peptide in which fungus bodies were not split in an MH medium with sufficient nutrients was measured.
(§2) Specifically, the strains described in the following [Table 2] were purchased and diluted with an MH medium such that the number of bacteria was 2×10^6 colony-forming units (CFUs), 100 μl of each of the diluted strains was aliquoted into a 96-well microtiter plate, and then 100 μl of a peptide solution diluted with the MH medium (solution diluted stepwise at 2: 1) was added to each well.

MDREC 1229 = experiment: MIC of antibiotic during combined treatment with antimicrobial peptide; assay type: cell-based, Escherichia coli
Procedure: (§3) Specifically, the strains described in [Table 2] were prepared and diluted with an MH medium such that the number of bacteria was 2×10^6 colony-forming units (CFUs) per 1 ml, 100 μl of the diluted strains was each aliquoted into a 96-well microtiter plate, and then 50 μl of a peptide solution diluted with the MH medium from the MIC value (solution diluted stepwise at 2: 1) was added to each well. Thereafter, the MIC value of each mixed solution was determined by diluting the antibiotic solution with the MH medium, adding 50 μl of the diluted solution to each well, and performing an experiment even under a reversed condition.

MDRPA 2003 = assay type: cell-based, Pseudomonas aeruginosa
Procedure: as §1, §2

MDRPA 2002 = assay type: cell-based, Pseudomonas aeruginosa
Procedure: as §1, §2

MDRAB 12036 = assay type: cell-based, Acinetobacter baumannii
Procedure: as §1, §2

MDRAB 12035 = experiment: MIC of antibiotic during combined treatment with antimicrobial peptide; assay type: cell-based, Acinetobacter baumannii
Procedure: as §3

MDRST 8007 = experiment: Minimal inhibitory concentration (MIC), single agent; assay type: cell-based, Salmonella typhimurium; conditions: agent alone
Procedure: as §1, §2

MDREC 1238 = assay type: cell-based, Escherichia coli
Procedure: as §1, §2

MRSA 3114 = assay type: cell-based, Staphylococcus aureus; conditions: 3114
Procedure: as §1, §2

MRSA 3126 = assay type: cell-based, Staphylococcus aureus; conditions: 3126
Procedure: as §1, §2

[1] = peptide treatment concentration 1 μg/ml
[2] = peptide treatment concentration 2 μg/ml
[3] = peptide treatment concentration 4 μg/ml
[4] = peptide treatment concentration 6 μg/ml
[5] = peptide treatment concentration 8 μg/ml
[6] = peptide treatment concentration 16 μg/ml
[7] = peptide treatment concentration 32 μg/ml
[8] = peptide treatment concentration 64 μg/ml

## CC[C@H](C)[C@H](NC(=O)[C@H](CCCCN)NC(=O)[C@H](Cc1c[nH]c2ccccc12)NC(=O)[C@@H](N)CCCNC(=N)N)C(=O)N[C@@H](Cc1ccccc1)C(=O)N[C@@H](CCCCN)C(=O)N[C@@H](CCCCN)C(=O)N[C@H](C(=O)N1CCC[C@H]1C(=O)N[C@@H](CCCCN)C(=O)N[C@@H](Cc1ccccc1)C(=O)N[C@@H](CC(C)C)C(=O)N[C@@H](Cc1c[nH]cn1)C(=O)N[C@@H](CO)C(=O)N[C@@H](C)C(=O)N[C@@H](CCCCN)C(=O)N[C@@H](CCCCN)C(=O)N[C@@H](Cc1ccccc1)C(N)=O)[C@@H](C)CC [PapMA-1, RWK IFK KIP KFL HSA KKF-NH2] (H-RWKIFKKIPKFLHSAKKF-NH2; N-terminus assumed)
S. typhimurium
  Minimal inhibitory concentration MIC: 64 µg/mL (≈ 27.8 µM)
MDREC 1229; [1]
  Antibiotic MIC, Erythromycin: 128 µg/mL
  Antibiotic MIC, Linezolid: >128 µg/mL
  Antibiotic MIC, Vancomycin: >128 µg/mL
MDREC 1229; [2]
  Antibiotic MIC, Erythromycin: 32 µg/mL
  Antibiotic MIC, Linezolid: 128 µg/mL
  Antibiotic MIC, Vancomycin: >128 µg/mL
MDREC 1229; [3]
  Antibiotic MIC, Erythromycin: 16 µg/mL
  Antibiotic MIC, Linezolid: 64 µg/mL
  Antibiotic MIC, Vancomycin: >128 µg/mL
MDREC 1229; [4]
  Antibiotic MIC, Erythromycin: 8 µg/mL
  Antibiotic MIC, Linezolid: 64 µg/mL
  Antibiotic MIC, Vancomycin: >128 µg/mL
MDREC 1229; [5]
  Antibiotic MIC, Erythromycin: 4 µg/mL
  Antibiotic MIC, Linezolid: 32 µg/mL
  Antibiotic MIC, Vancomycin: 128 µg/mL
MDREC 1229; [6]
  Antibiotic MIC, Erythromycin: 1 µg/mL
  Antibiotic MIC, Linezolid: 16 µg/mL
  Antibiotic MIC, Vancomycin: 16 µg/mL
MDREC 1229; [7]
  Antibiotic MIC, Erythromycin: 0.25 µg/mL
  Antibiotic MIC, Linezolid: 8 µg/mL
  Antibiotic MIC, Vancomycin: 8 µg/mL
MDREC 1229; [8]
  Antibiotic MIC, Erythromycin: 0 µg/mL
  Antibiotic MIC, Linezolid: 0 µg/mL
  Antibiotic MIC, Vancomycin: 0 µg/mL
MDRPA 2003
  Minimal inhibitory concentration MIC: 32 µg/mL (≈ 13.9 µM)
MDRPA 2002
  Minimal inhibitory concentration MIC: 16 µg/mL (≈ 6.95 µM)
MDRAB 12036
  Minimal inhibitory concentration MIC: 64 µg/mL (≈ 27.8 µM)
MDRAB 12035; [1]
  Erythromycin MIC during combined treatment with peptide: 32 µg/mL
  Linezolid MIC during combined treatment with peptide: >128 µg/mL
  Vancomycin MIC during combined treatment with peptide: >128 µg/mL
MDRAB 12035; [2]
  Erythromycin MIC during combined treatment with peptide: 32 µg/mL
  Linezolid MIC during combined treatment with peptide: 128 µg/mL
  Vancomycin MIC during combined treatment with peptide: >128 µg/mL
MDRAB 12035; [3]
  Erythromycin MIC during combined treatment with peptide: 16 µg/mL
  Linezolid MIC during combined treatment with peptide: 64 µg/mL
  Vancomycin MIC during combined treatment with peptide: 128 µg/mL
MDRAB 12035; [4]
  Erythromycin MIC during combined treatment with peptide: 4 µg/mL
  Linezolid MIC during combined treatment with peptide: 32 µg/mL
  Vancomycin MIC during combined treatment with peptide: 32 µg/mL
MDRAB 12035; [5]
  Erythromycin MIC during combined treatment with peptide: 0.5 µg/mL
  Linezolid MIC during combined treatment with peptide: 16 µg/mL
  Vancomycin MIC during combined treatment with peptide: 16 µg/mL
MDRAB 12035; [6]
  Erythromycin MIC during combined treatment with peptide: 0.25 µg/mL
  Linezolid MIC during combined treatment with peptide: 8 µg/mL
  Vancomycin MIC during combined treatment with peptide: 16 µg/mL
MDRAB 12035; [7]
  Erythromycin MIC during combined treatment with peptide: 0.125 µg/mL
  Linezolid MIC during combined treatment with peptide: 4 µg/mL
  Vancomycin MIC during combined treatment with peptide: 8 µg/mL
MDRAB 12035; [8]
  Erythromycin MIC during combined treatment with peptide: 0 µg/mL
  Linezolid MIC during combined treatment with peptide: 0 µg/mL
  Vancomycin MIC during combined treatment with peptide: 0 µg/mL
MDRST 8007
  Minimal inhibitory concentration MIC: 64 µg/mL (≈ 27.8 µM)
MDREC 1238
  Minimal inhibitory concentration MIC: 64 µg/mL (≈ 27.8 µM)
MRSA 3114
  Minimal inhibitory concentration MIC: >128 µg/mL
MRSA 3126
  Minimal inhibitory concentration MIC: >128 µg/mL

## CC[C@H](C)[C@H](NC(=O)[C@H](CCCCN)NC(=O)[C@H](Cc1c[nH]c2ccccc12)NC(=O)[C@@H](N)CCCNC(=N)N)C(=O)N[C@@H](Cc1ccccc1)C(=O)N[C@@H](CCCCN)C(=O)N[C@@H](CCCCN)C(=O)N[C@H](C(=O)N1CCC[C@H]1C(=O)N[C@@H](CCCCN)C(=O)N[C@@H](Cc1ccccc1)C(=O)N[C@@H](CC(C)C)C(=O)N[C@@H](Cc1c[nH]cn1)C(=O)N[C@@H](CO)C(=O)N[C@@H](Cc1ccccc1)C(=O)N[C@@H](CCCCN)C(=O)N[C@@H](CCCCN)C(=O)N[C@@H](Cc1ccccc1)C(N)=O)[C@@H](C)CC [PapMA-5, RWK IFK KIP KFL HSF KKF-NH2] (H-RWKIFKKIPKFLHSFKKF-NH2; N-terminus assumed)
S. typhimurium
  Minimal inhibitory concentration MIC: 64 µg/mL (≈ 26.9 µM)
MDREC 1229; [1]
  Antibiotic MIC, Erythromycin: 128 µg/mL
  Antibiotic MIC, Linezolid: 128 µg/mL
  Antibiotic MIC, Vancomycin: >128 µg/mL
MDREC 1229; [2]
  Antibiotic MIC, Erythromycin: 64 µg/mL
  Antibiotic MIC, Linezolid: 128 µg/mL
  Antibiotic MIC, Vancomycin: >128 µg/mL
MDREC 1229; [3]
  Antibiotic MIC, Erythromycin: 16 µg/mL
  Antibiotic MIC, Linezolid: 64 µg/mL
  Antibiotic MIC, Vancomycin: >128 µg/mL
MDREC 1229; [4]
  Antibiotic MIC, Erythromycin: 8 µg/mL
  Antibiotic MIC, Linezolid: 32 µg/mL
  Antibiotic MIC, Vancomycin: >128 µg/mL
MDREC 1229; [5]
  Antibiotic MIC, Erythromycin: 4 µg/mL
  Antibiotic MIC, Linezolid: 32 µg/mL
  Antibiotic MIC, Vancomycin: 64 µg/mL
MDREC 1229; [6]
  Antibiotic MIC, Erythromycin: 1 µg/mL
  Antibiotic MIC, Linezolid: 16 µg/mL
  Antibiotic MIC, Vancomycin: 16 µg/mL
MDREC 1229; [7]
  Antibiotic MIC, Erythromycin: 0.25 µg/mL
  Antibiotic MIC, Linezolid: 4 µg/mL
  Antibiotic MIC, Vancomycin: 8 µg/mL
MDREC 1229; [8]
  Antibiotic MIC, Erythromycin: 0 µg/mL
  Antibiotic MIC, Linezolid: 0 µg/mL
  Antibiotic MIC, Vancomycin: 0 µg/mL
MDRPA 2003
  Minimal inhibitory concentration MIC: 16 µg/mL (≈ 6.73 µM)
MDRPA 2002
  Minimal inhibitory concentration MIC: 16 µg/mL (≈ 6.73 µM)
MDRAB 12036
  Minimal inhibitory concentration MIC: 64 µg/mL (≈ 26.9 µM)
MDRAB 12035; [1]
  Erythromycin MIC during combined treatment with peptide: 32 µg/mL
  Linezolid MIC during combined treatment with peptide: >128 µg/mL
  Vancomycin MIC during combined treatment with peptide: >128 µg/mL
MDRAB 12035; [2]
  Erythromycin MIC during combined treatment with peptide: 32 µg/mL
  Linezolid MIC during combined treatment with peptide: 128 µg/mL
  Vancomycin MIC during combined treatment with peptide: >128 µg/mL
MDRAB 12035; [3]
  Erythromycin MIC during combined treatment with peptide: 16 µg/mL
  Linezolid MIC during combined treatment with peptide: 64 µg/mL
  Vancomycin MIC during combined treatment with peptide: 128 µg/mL
MDRAB 12035; [4]
  Erythromycin MIC during combined treatment with peptide: 2 µg/mL
  Linezolid MIC during combined treatment with peptide: 16 µg/mL
  Vancomycin MIC during combined treatment with peptide: 32 µg/mL
MDRAB 12035; [5]
  Erythromycin MIC during combined treatment with peptide: 1 µg/mL
  Linezolid MIC during combined treatment with peptide: 8 µg/mL
  Vancomycin MIC during combined treatment with peptide: 16 µg/mL
MDRAB 12035; [6]
  Erythromycin MIC during combined treatment with peptide: 0.25 µg/mL
  Linezolid MIC during combined treatment with peptide: 8 µg/mL
  Vancomycin MIC during combined treatment with peptide: 8 µg/mL
MDRAB 12035; [7]
  Erythromycin MIC during combined treatment with peptide: 0.125 µg/mL
  Linezolid MIC during combined treatment with peptide: 4 µg/mL
  Vancomycin MIC during combined treatment with peptide: 4 µg/mL
MDRAB 12035; [8]
  Erythromycin MIC during combined treatment with peptide: 0 µg/mL
  Linezolid MIC during combined treatment with peptide: 0 µg/mL
  Vancomycin MIC during combined treatment with peptide: 0 µg/mL
MDRST 8007
  Minimal inhibitory concentration MIC: 64 µg/mL (≈ 26.9 µM)
MDREC 1238
  Minimal inhibitory concentration MIC: 64 µg/mL (≈ 26.9 µM)
MRSA 3114
  Minimal inhibitory concentration MIC: >128 µg/mL
MRSA 3126
  Minimal inhibitory concentration MIC: >128 µg/mL
